Test [1] has as its system rat carrageenan-induced foot pad edema. The experiment in a line: Rat carrageenan-induced foot pad edema assay. Format: in vivo, rats. As to conditions: 10 mg/kg oral. How it is done: Male Sprgue-Dawley rats (190–220 g) were fasted with free access to water at least 16 h prior to experiments. The rats were dosed orally with a 1 ml suspension of test compound in vehicle (0.5% methyl cellulose and 0.025% Tween-20) or with vehicle alone. One hour later a subplantar injection of 0.1 ml of 1% solution of caarageenan in 0.9% strile saline was administered to the right hind foot pad. Paw volume was measured with a displacement plethysmometer 2, 3, and 4 h after caarageenan injection.
Background: Carrageenan injected into the paw causes an acute inflammation.

Another test concerns the target T1, Cyclooxygenase-2 (Mus musculus, UniProt Q05769).
T1 construct: endogenous in cells; host or cells: thioglycollate-elicited peritoneal macrophages of male C57BL-6J mice
T1 sequence (Q05769 18-604): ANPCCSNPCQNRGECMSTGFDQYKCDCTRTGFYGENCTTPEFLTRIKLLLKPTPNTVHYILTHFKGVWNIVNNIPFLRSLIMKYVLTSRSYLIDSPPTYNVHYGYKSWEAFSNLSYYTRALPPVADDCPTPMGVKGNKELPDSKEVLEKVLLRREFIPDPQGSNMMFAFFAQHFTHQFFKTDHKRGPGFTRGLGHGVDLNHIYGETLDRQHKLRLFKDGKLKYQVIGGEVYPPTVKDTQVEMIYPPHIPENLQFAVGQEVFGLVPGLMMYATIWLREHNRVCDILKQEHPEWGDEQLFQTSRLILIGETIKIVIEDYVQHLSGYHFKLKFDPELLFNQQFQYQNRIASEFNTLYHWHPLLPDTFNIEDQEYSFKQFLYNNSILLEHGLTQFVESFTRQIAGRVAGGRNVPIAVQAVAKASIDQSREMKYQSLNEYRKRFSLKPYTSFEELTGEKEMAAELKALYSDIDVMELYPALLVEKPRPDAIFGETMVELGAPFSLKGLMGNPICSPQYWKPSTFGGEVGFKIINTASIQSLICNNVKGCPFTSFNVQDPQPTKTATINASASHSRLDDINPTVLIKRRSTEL
The test is described as follows: COX-2 assay: LPS-stimulated PGE2 production in mouse peritoneal macrophages (RIA). Format: cell-based, mice. Particulars: for pIC50: mouse peritoneal macrophages, LPS 1 mg/L 9 h, PGE2 by RIA; for COX-1/COX-2: ratio of IC50 COX-1 to IC50 COX-2. How it is done: Cell culture: Adherent macrophages were harvested from the peritoneal cells of male mice (C57BL-6J, Level 2, from Experiment Animal Center, Academy of Military Medical Science) 3 d after the injection (ip) of brewer thioglycollate medium (5 mL/100 g body weight). […] After settlement for 2˜3 h, non-adherent cells were washed by D-Hanks' balanced salt solution. […] Cell viability was examined by trypan blue dye exclusion. All incubation procedures were performed with 5% CO2 in humidified air at 37° C.
COX-2 assay: Macrophages were incubated with test compound at different concentrations or solvent (Me2SO) for 1 h and were stimulated with LPS 1 mg/L for 9 h. The amount of PGE2 in supernatants was measured by RIA. The inhibitory ratio was calculated using the same formula as in COX-1 assay section. Cs, Ct, Cc refer to PGE2 concentration in supernatants of LPS, test compound, and control groups, respectively.
(§1) [formula] Cs, Ct, Cc refer to 6-keto-PGF1[…] concentration in supernatants of calcimycin, test compound, and control groups, respectively.
(§2) Statistical analysis: Data were expressed as the mean±SD of more than three independent experiments. Dose-inhibitory effect curves were fit through “uphill dose response curves, variable slope” using Prism, GraphPad version3.00: […]

The target in the next test is T2, Cyclooxygenase-1 (Mus musculus, UniProt P22437).
T2 construct: endogenous in cells; host or cells: thioglycollate-elicited peritoneal macrophages of male C57BL-6J mice
T2 sequence (P22437 27-602): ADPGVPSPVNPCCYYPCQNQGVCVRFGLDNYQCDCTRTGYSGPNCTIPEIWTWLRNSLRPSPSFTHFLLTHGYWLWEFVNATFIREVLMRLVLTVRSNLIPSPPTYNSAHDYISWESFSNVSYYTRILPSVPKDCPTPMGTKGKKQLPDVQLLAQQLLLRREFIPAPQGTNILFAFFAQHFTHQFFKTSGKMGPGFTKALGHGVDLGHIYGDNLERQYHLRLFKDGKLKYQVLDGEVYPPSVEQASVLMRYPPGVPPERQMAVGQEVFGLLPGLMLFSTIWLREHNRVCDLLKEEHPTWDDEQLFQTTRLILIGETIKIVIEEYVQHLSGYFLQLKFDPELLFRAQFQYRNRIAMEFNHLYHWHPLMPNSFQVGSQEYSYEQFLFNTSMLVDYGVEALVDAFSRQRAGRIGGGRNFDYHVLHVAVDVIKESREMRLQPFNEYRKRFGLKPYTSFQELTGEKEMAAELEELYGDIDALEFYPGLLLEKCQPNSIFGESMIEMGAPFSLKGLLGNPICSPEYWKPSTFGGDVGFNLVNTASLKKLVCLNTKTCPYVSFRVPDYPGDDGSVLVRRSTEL
The experiment in a line: COX-1 assay: calcimycin-stimulated 6-keto-PGF1 production in mouse peritoneal macrophages (RIA). As to conditions: calcimycin 1 μmol/L 1 h, 6-keto-PGF1 by RIA. Format: cell-based, mice. As for the experimental part: Cell culture: Adherent macrophages were harvested from the peritoneal cells of male mice (C57BL-6J, Level 2, from Experiment Animal Center, Academy of Military Medical Science) 3 d after the injection (ip) of brewer thioglycollate medium (5 mL/100 g body weight). Shortly, peritoneal cells obtained from 3˜4 mice were mixed and seeded in 48 well cell culture cluster (Costar) at a cell density of 1×10^9 cell/L in RPMI-1640 supplemented with 5% (v/v) newborn calf serum, 100 ku/L penicillin and […] streptomycin. After settlement for 2˜3 h, non-adherent cells were washed by D-Hanks' balanced salt solution. Then macrophages were cultured in RPMI-1640 without serum. Almost all of adherent cells were macrophages as assessed by Giemsa staining. Cell viability was examined by trypan blue dye exclusion. All incubation procedures were performed with 5% CO2 in humidified air at 37° C.
COX-1: assay Macrophages were incubated with test compound at different concentrations or solvent (Me2SO) for 1 h and were stimulated with calcimycin 1 μmol·L^−1 for 1 h. The amount of 6-keto-PGF1[…] (a stable metabolite of PGI2) in supernatants was measured by RIA according to manufacturer's guide. The inhibitory ratio was calculated as
as §1, §2

Where [2] appears, read: 3 h after carrageenan, read-out: inhibitory percentage of edema, 3 hr.
The mark [3] stands for this setting: 4 h after carrageenan, read-out: inhibitory percentage of edema, 4 hr.

Each structure is given as a SMILES string. pIC50: −log10 of the molar value. Like-named read-outs stand apart in the source and are kept apart here.

As to `CCCN1CC(c2ccc(C)cc2)=C(c2ccc(S(C)(=O)=O)cc2)C1=O` [Example 104, N-Propyl-3-(4-methylsulfonylphenyl)-4-(4-methylphenyl)-2,5-dihydropyrrole-2-one], the values for the inhibition at 10 mg/kg in test [1] (setting [2]) and in test [1] (setting [3]) were 24.5% and 19.3%, respectively.
As usually defined, the pIC50 is the IC50 on a negative log10 scale, so that one unit is a factor of ten. In the case of `Cc1ccc(C2=C(c3ccc(S(C)(=O)=O)cc3)C(=O)N(C)C2)cc1` [Example 105, N-Methyl-3-(4-methylsulfonylphenyl)-4-(4-methylphenyl)-2,5-dihydropyrrole-2-one], the pIC50 against Cyclooxygenase-2 is 6.11; on Cyclooxygenase-1 it was below 5.00. The inhibition at 10 mg/kg in test [1] (setting [2]) worked out at 39.2%; in test [1] (setting [3]), 48.2%.
In the case of `CCCN1CC(c2ccc(F)cc2)=C(c2ccc(S(C)(=O)=O)cc2)C1=O` [Example 106, N-Propyl-3-(4-methylsulfonylphenyl)-4-(4-fluorophenyl)-2,5-dihydropyrrole-2-one], the pIC50 at Cyclooxygenase-2 is 6.21; on Cyclooxygenase-1, below 5.00.
The like results for `CS(=O)(=O)c1ccc(C2=C(c3ccc(Cl)cc3)CN(C3CC3)C2=O)cc1` [Example 107, N-Cyclopropyl-3-(4-methylsulfonylphenyl)-4-(4-chlorophenyl)-2,5-dihydropyrrole-2-one] were, in that order, 6.38 and below 5.00.
The like results for `CN1CC(c2cccc(Cl)c2)=C(c2ccc(S(C)(=O)=O)cc2)C1=O` [Example 109, N-Methyl-3-(4-methylsulfonylphenyl)-4-(3-chlorophenyl)-2,5-dihydropyrrole-2-one] were, in that order, 6.38 and below 5.00.
On Cyclooxygenase-2, `CCCN1CC(c2cccc(Cl)c2)=C(c2ccc(S(C)(=O)=O)cc2)C1=O` [Example 110, N-Propyl-3-(4-methylsulfonylphenyl)-4-(3-chlorophenyl)-2,5-dihydropyrrole-2-one] had a pIC50 of 6.11. The inhibition at 10 mg/kg amounted to 25.8% in test [1] (setting [2]) and 36.7% in test [1] (setting [3]).
On to `CS(=O)(=O)c1ccc(C2=C(c3ccccc3)CN(C3CCCCC3)C2=O)cc1` [Example 112, N-Cyclohexyl-3-(4-methylsulfonylphenyl)-4-phenyl-2,5-dihydropyrrole-2-one], for which the results for the pIC50 against Cyclooxygenase-2 and at Cyclooxygenase-1 were 5.75 and below 5.00, respectively.
The matching figures for `CS(=O)(=O)c1ccc(C2=C(c3cccc(F)c3)CN(C3CC3)C2=O)cc1` [Example 113, N-Cyclopropyl-3-(4-methylsulfonylphenyl)-4-(3-fluorophenyl)-2,5-dihydropyrrole-2-one]: 6.00 and below 5.00.
As to `CN1CC(c2ccc(S(C)(=O)=O)cc2)=C(c2ccccc2)C1=O` [Example 114, N-Methyl-3-phenyl-4-(4-methylsulfonylphenyl)-2,5-dihydropyrrole-2-one], the pIC50 against Cyclooxygenase-2 was 7.85; at Cyclooxygenase-1 it was 5.95. For the same compound, the COX-1/COX-2 at Cyclooxygenase-2 was found to be 78.9.
With `CS(=O)(=O)c1ccc(C2=C(c3ccccc3)C(=O)N(C3CC3)C2)cc1` [Example 116, N-Cyclopropyl-3-phenyl-4-(4-methylsulfonylphenyl)-2,5-dihydropyrrole-2-one], the pIC50 at Cyclooxygenase-2 is 7.60; on Cyclooxygenase-1 it was 6.33. In addition, the COX-1/COX-2 on Cyclooxygenase-2 amounted to 18.5.
In the case of `CCCN1CC(c2ccc(S(C)(=O)=O)cc2)=C(c2cccc(C)c2)C1=O` [Example 121, N-Propyl-3-(3-methylphenyl)-4-(4-methylsulfonylphenyl)-2,5-dihydropyrrole-2-one], the pIC50 against Cyclooxygenase-2 is 7.71; on Cyclooxygenase-1, 6.92.
Turning to `Cc1cccc(C2=C(c3ccc(S(C)(=O)=O)cc3)CN(C3CC3)C2=O)c1` [Example 126, N-Cyclopropyl-3-(3-methylphenyl)-4-(4-methylsulfonylphenyl)-2,5-dihydropyrrole-2-one], on Cyclooxygenase-2, the pIC50 was 7.81 and the COX-1/COX-2 worked out at 14.3. The pIC50 on Cyclooxygenase-1 is 6.66.
Turning to `CS(=O)(=O)c1ccc(C2=C(c3ccc(Cl)cc3)C(=O)N(C3CCCCC3)C2)cc1` [Example 127, N-Cyclohexyl-3-(4-chlorophenyl)-4-(4-methylsulfonylphenyl)-2,5-dihydropyrrole-2-one], the pIC50 at Cyclooxygenase-2 was 7.68; at Cyclooxygenase-1, 6.84.
The like results for `CS(=O)(=O)c1ccc(C2=C(c3ccc(F)cc3)C(=O)N(C3CC3)C2)cc1` [Example 128, N-Cyclopropyl-3-(4-fluorophenyl)-4-(4-methylsulfonylphenyl)-2,5-dihydropyrrole-2-one] were, in that order, 7.18 and below 5.00.
The like results for `CCCN1CC(c2cccc(Br)c2)=C(c2ccc(S(N)(=O)=O)cc2)C1=O` [Example 132, N-Propyl-3-(4-aminosulfonylphenyl)-4-(3-bromophenyl)-2,5-dihydropyrrole-2-one] were, in that order, 6.00 and below 5.00.
At Cyclooxygenase-2, `CCCN1CC(c2cccc(Cl)c2)=C(c2ccc(S(N)(=O)=O)cc2)C1=O` [Example 133, N-Propyl-3-(4-aminosulfonylphenyl)-4-(3-chlorophenyl)-2,5-dihydropyrrole-2-one] showed a pIC50 of 6.32.
With `CCCN1CC(c2cccc(F)c2)=C(c2ccc(S(N)(=O)=O)cc2)C1=O` [Example 135, N-Propyl-3-(4-aminosulfonylphenyl)-4-(3-fluorophenyl)-2,5-dihydropyrrole-2-one], the pIC50 was 6.25 against Cyclooxygenase-2 and below 5.00 at Cyclooxygenase-1.
The like results for `NS(=O)(=O)c1ccc(C2=C(c3cccc(Cl)c3)CN(C3CC3)C2=O)cc1` [Example 137, N-Cylcopropyl-3-(4-aminosulfonylphenyl)-4-(3-chlorophenyl)-2,5-dihydropyrrole-2-one] were, in that order, 5.77 and below 5.00.
The matching figures for `Cc1cccc(C2=C(c3ccc(S(N)(=O)=O)cc3)CN(C3CC3)C2=O)c1` [Example 141, N-Cylcopropyl-3-(3-methylphenyl)-4-(4-aminosulfonylphenyl)-2,5-dihydropyrrole-2-one]: 7.73 and below 5.00.

The record behind these values is US7112605B2, “Sulfonyl-containing 3,4-diaryl-3-pyrrolin-2-ones, preparation method, and medical use thereof” (Research Institute of Materia Medica Chinese Acadamy of …, priority 2002, dated 2006).
